ChEMBL document CHEMBL3525964 (Drug Metab Dispos, 2012)

What was measured:
Homo sapiens [1] = assay: AUC (0 to last) in human at 15 mg, po administered as single dose by liquid scintillation counting method; assay type: ADME, organism-based, Plasma; parameters: dose 15 mg, time 0 - last, route oral; conditions: in vivo
Plasma [2] = assay: Drug level in human plasma treated with [14C}LY2452473 at 15 mg, po after 24 hrs administered as single dose by HPLC analysis; assay type: ADME, organism-based; conditions: in vivo
Plasma [3] = assay: Drug level in human plasma treated with [14C}LY2452473 at 15 mg, po after 2 hrs administered as single dose by HPLC analysis; assay type: ADME, organism-based; conditions: in vivo
Cytochrome P450 2C19 [4] = biological target: T1, Cytochrome P450 2C19 (Homo sapiens, UniProt P33261); assay: Fraction metabolized assessed as human recombinant CYP2C19-mediated drug depletion by LC-MS/MS method relative to total normalized intrinsic clearance; assay type: ADME; conditions: recombinant enzyme
T1 sequence (P33261 whole entry): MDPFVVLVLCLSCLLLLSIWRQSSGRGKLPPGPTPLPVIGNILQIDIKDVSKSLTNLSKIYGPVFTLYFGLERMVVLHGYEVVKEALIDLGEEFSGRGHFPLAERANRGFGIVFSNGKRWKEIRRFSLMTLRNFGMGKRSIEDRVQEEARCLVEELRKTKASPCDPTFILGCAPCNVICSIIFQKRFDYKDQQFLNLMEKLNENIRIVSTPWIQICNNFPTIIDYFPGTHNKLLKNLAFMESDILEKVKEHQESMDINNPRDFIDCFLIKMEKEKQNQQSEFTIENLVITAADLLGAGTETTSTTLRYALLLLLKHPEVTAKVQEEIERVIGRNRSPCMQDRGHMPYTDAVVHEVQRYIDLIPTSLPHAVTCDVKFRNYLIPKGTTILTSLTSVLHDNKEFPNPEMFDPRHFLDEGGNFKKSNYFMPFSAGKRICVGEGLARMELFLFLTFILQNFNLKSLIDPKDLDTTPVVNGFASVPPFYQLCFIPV

Cytochrome P450 2B6 = biological target: T2, Cytochrome P450 2B6 (Homo sapiens, UniProt P20813); assay: Drug metabolism assessed as human recombinant CYP2B6-mediated drug depletion by LC-MS/MS method; assay type: ADME; conditions: recombinant enzyme
T2 sequence (P20813 whole entry): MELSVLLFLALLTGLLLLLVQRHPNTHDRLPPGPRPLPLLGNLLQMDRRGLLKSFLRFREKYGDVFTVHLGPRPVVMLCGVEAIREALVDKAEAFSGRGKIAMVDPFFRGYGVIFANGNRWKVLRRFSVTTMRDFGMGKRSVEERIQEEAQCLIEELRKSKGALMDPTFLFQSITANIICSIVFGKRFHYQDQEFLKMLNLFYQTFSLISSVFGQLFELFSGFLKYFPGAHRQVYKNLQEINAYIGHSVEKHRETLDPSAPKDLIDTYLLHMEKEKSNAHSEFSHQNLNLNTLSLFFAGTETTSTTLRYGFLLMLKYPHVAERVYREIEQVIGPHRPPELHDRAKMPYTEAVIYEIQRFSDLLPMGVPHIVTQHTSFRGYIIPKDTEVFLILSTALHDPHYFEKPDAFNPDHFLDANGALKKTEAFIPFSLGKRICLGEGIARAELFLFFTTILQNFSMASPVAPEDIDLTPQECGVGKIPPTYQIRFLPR

[5] = Total drug excretion in human treated with [14C}LY2452473 at 15 mg, po administered as single dose by HPLC analysis; assay type: ADME, organism-based; conditions: in vivo, read-out: Drug excretion
Cytochrome P450 3A4 = Cytochrome P450 3A4 (Homo sapiens, UniProt P08684); assay: Drug metabolism in human liver microsomes assessed as CYP3A4-mediated drug depletion in presence of CYP2D6 inhibitor quinidine by LC-MS/MS method; assay type: ADME
Cytochrome P450 3A4, sequence (P08684 whole entry): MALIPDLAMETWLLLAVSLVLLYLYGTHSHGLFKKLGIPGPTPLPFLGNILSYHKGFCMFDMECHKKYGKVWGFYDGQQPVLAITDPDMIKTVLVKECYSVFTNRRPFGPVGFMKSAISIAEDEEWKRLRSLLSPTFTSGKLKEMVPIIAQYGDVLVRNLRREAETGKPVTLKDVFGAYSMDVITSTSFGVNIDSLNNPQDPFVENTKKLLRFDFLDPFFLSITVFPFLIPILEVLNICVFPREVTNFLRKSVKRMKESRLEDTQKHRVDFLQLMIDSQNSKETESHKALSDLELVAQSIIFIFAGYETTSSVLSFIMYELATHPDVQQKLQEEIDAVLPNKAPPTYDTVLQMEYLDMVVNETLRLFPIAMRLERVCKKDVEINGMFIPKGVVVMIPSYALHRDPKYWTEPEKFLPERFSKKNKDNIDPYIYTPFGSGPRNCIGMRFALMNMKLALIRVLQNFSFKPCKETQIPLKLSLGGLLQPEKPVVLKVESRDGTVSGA

Cytochrome P450 2J2 = biological target: T3, Cytochrome P450 2J2 (Homo sapiens, UniProt P51589); assay: Normalized intrinsic clearance assessed as human recombinant CYP2J2-mediated drug depletion per pmol protein by LC-MS/MS method; assay type: ADME; conditions: recombinant enzyme
T3 sequence (P51589 whole entry): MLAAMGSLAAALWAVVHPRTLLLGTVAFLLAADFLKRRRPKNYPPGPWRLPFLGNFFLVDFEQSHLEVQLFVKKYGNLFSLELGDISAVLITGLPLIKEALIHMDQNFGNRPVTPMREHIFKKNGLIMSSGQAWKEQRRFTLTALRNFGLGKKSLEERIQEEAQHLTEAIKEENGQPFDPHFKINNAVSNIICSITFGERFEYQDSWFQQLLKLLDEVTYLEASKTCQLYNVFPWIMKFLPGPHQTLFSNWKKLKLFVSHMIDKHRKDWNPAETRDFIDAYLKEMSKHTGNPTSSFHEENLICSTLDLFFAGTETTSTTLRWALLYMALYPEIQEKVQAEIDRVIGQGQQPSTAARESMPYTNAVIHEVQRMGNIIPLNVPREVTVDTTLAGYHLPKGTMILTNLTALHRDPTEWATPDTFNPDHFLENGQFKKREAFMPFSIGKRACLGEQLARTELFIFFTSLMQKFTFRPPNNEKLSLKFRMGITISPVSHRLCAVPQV

Plasma [6] = assay: Drug level in human plasma treated with [14C}LY2452473 at 15 mg, po after 4 hrs administered as single dose by HPLC analysis relative to total radioactivity; assay type: ADME, organism-based; conditions: in vivo
Plasma [7] = assay: Drug level in human plasma treated with [14C}LY2452473 at 15 mg, po after 1 hr administered as single dose by HPLC analysis; assay type: ADME, organism-based; conditions: in vivo
Homo sapiens [8] = assay: Apparent total body clearance in human at 15 mg, po administered as single dose by liquid scintillation counting method; assay type: ADME, organism-based; conditions: in vivo
Cytochrome P450 1A2 = biological target: T4, Cytochrome P450 1A2 (Homo sapiens, UniProt P05177); assay: Drug metabolism assessed as human recombinant CYP1A2-mediated drug depletion by LC-MS/MS method; assay type: ADME; conditions: recombinant enzyme
T4 sequence (P05177 whole entry): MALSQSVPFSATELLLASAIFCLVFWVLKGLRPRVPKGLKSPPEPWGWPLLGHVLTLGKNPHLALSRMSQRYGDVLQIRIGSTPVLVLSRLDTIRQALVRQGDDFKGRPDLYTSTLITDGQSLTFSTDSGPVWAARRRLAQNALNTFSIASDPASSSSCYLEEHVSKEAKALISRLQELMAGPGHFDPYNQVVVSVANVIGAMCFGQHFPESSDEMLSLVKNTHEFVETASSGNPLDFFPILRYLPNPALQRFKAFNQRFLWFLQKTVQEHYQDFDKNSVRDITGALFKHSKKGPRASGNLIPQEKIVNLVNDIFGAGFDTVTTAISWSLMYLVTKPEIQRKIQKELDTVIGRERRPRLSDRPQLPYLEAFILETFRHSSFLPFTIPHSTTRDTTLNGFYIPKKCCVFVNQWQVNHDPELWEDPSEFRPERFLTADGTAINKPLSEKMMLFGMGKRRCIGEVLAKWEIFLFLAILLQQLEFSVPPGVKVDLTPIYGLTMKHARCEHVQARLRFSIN

Cytochrome P450 2C9 [9] = biological target: T5, Cytochrome P450 2C9 (Homo sapiens, UniProt P11712); assay: Normalized intrinsic clearance assessed as human recombinant CYP2C9-mediated drug depletion per pmol protein by LC-MS/MS method; assay type: ADME; conditions: recombinant enzyme
T5 sequence (P11712 whole entry): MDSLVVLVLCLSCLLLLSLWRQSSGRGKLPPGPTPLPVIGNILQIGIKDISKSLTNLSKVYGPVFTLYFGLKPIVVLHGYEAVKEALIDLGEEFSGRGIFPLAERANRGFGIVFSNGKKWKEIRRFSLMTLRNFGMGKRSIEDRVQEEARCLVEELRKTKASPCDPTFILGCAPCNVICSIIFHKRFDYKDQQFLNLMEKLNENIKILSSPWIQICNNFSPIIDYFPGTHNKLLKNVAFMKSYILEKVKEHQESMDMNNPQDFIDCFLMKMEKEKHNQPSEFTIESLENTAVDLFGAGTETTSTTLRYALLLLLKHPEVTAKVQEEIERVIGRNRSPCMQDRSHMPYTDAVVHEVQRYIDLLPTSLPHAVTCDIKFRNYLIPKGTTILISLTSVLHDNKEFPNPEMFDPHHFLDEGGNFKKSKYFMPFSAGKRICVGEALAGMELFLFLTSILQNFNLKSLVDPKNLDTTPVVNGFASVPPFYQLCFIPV

Cytochrome P450 2C19 [10] = biological target: T1, Cytochrome P450 2C19; assay: Drug metabolism in human liver microsomes assessed as CYP3A4-mediated drug depletion in presence of CYP2C19 inhibitor modafinil by LC-MS/MS method; assay type: ADME
Cytochrome P450 2C9 [11] = biological target: T5, Cytochrome P450 2C9; assay: Drug metabolism in human liver microsomes assessed as CYP3A4-mediated drug depletion in presence of CYP2C9 inhibitor sulfaphenazole by LC-MS/MS method; assay type: ADME
Cytochrome P450 2C19 [12] = biological target: T1, Cytochrome P450 2C19; assay: Normalized intrinsic clearance assessed as human recombinant CYP2C19-mediated drug depletion per pmol protein by LC-MS/MS method; assay type: ADME; conditions: recombinant enzyme
Homo sapiens [13] = assay: Terminal half life in human at 15 mg, po administered as single dose by liquid scintillation counting method; assay type: ADME, organism-based; conditions: in vivo
Plasma [14] = assay: Drug level in human plasma treated with [14C}LY2452473 at 15 mg, po after 8 hrs administered as single dose by HPLC analysis; assay type: ADME, organism-based; conditions: in vivo
Cytochrome P450 2D6 = Cytochrome P450 2D6 (Homo sapiens, UniProt P10635); assay: Intrinsic clearance assessed as human recombinant CYP2D6-mediated drug depletion per pmol protein by LC-MS/MS method; assay type: ADME; conditions: recombinant enzyme
Cytochrome P450 2D6, sequence (P10635 whole entry): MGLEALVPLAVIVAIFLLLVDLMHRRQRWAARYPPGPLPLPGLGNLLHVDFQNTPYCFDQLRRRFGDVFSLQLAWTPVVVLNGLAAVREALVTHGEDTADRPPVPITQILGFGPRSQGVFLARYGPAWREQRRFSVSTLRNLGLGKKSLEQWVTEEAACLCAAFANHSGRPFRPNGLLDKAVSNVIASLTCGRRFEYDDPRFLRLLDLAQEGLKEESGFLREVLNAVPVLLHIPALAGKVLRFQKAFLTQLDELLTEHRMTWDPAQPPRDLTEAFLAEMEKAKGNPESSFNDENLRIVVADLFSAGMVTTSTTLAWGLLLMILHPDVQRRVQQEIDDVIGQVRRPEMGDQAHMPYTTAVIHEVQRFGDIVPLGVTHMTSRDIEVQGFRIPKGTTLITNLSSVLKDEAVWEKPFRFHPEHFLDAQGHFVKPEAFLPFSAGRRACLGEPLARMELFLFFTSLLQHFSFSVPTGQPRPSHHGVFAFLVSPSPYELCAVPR

[15] = Drug level in urine of human treated with [14C}LY2452473 at 15 mg, po administered as single dose by LC-MS/MS method; assay type: ADME, organism-based; conditions: in vivo
[16] = Drug level in feces of human treated with [14C}LY2452473 at 15 mg, po administered as single dose by LC-MS/MS method; assay type: ADME, organism-based; conditions: in vivo
Cytochrome P450 2C9 [17] = biological target: T5, Cytochrome P450 2C9; assay: Intrinsic clearance assessed as human recombinant CYP2C9-mediated drug depletion per pmol protein by LC-MS/MS method; assay type: ADME; conditions: recombinant enzyme

CC(C)OC(=O)N[C@H]1Cc2c(n(Cc3ccccn3)c3ccc(C#N)cc23)C1 [LY2452473]
AUClast (Homo sapiens [1]): 1310 ng·h/mL
Drug uptake (Plasma [2]): 28.81%
Drug uptake (Plasma [3]): 72.93%
Fm (Cytochrome P450 2C19 [4]): 4.9%
Drug metabolism (Cytochrome P450 2B6): metabolite_not_detected
dose excreted [5]: 1.84%
Drug metabolism (Cytochrome P450 3A4): metabolite_not_detected
CL (Cytochrome P450 2J2): 18 µL/min
Drug uptake (Plasma [6]): 42.2%
Drug uptake (Plasma [7]): 74.5%
CLt/F (Homo sapiens [8]): 11 L/h
Drug metabolism (Cytochrome P450 1A2): metabolite_not_detected
CL (Cytochrome P450 2C9 [9]): 10 µL/min
Drug metabolism (Cytochrome P450 2C19 [10]): metabolite_not_detected
Drug metabolism (Cytochrome P450 2C9 [11]): metabolite_not_detected
CL (Cytochrome P450 2C19 [12]): 5.7 µL/min
beta t1/2 (Homo sapiens [13]): 27 h
Drug uptake (Plasma [14]): 42.36%
CL (Cytochrome P450 2D6): 0.3 µL/min
Drug metabolism [15]: metabolite_detected
Drug metabolism [16]: metabolite_detected
CL (Cytochrome P450 2C9 [17]): 0.1 µL/min
